This is an account of results in patent publication US20050158323A1, “Methods of killing tumor cells by targeting internal antigens exposed on apoptotic tumor cells” (Vaccinex, Inc., priority 2003, published 2005).

One data set concerns Colau.C35 tumor cells. Kind of data set: Combination radioimmunotherapy and chemotherapy, second experiment (FIG. 6, Table 5). It counts as in vivo, Swiss nude mice. How it is done:
Swiss nude mice were grafted with Colau.C35 cells on day 0. Chemotherapy: Cisplatin administered at 2 mg/kg i.v. on days 15 & 18; 5FU/LV administered at 180/120 mg/kg i.v. on day 18. Radioimmunotherapy: 300 μCi (˜50 μg) of ^131I-labeled murine 1B3 anti-C35 IgG was administered on day 21.
In a second experiment, the effect of combination radioimmunotherapy with ^131I labeled 1B3 anti-C35 monoclonal antibody and chemotherapy with cisplatin at 2 mg/kg on day 15 and 18 was tested in Swiss nude mice grafted with Colau.C35 tumor cells. Cispaltin was administered on days 15 and 18 following tumor graft. 300 μCi of ^131I-labeled 1B3 anti-C35 monoclonal antibody was administered on day 21. Tumor growth was followed for up to 10 weeks.
In the same experiment, separate groups of Swiss nude mice grafted with Colau.C35 tumor cells were treated with either 5-FluoroUracil (5FU) at 180 mg/kg, together with Leucovorin (LV) at 120 mg/kg or this same chemotherapy regimen administered on day 18 followed by 300 μCi of ^131I-labeled 1B3 anti-C35 monoclonal antibody administered on day 21.

For data set [1] the following is noted: nude mice, cited from earlier work.
The test system of data set [2] is rabbit anti-human C35 polyclonal antibody. Kind of data set: ELISA of rabbit C35 immune serum on C35 derived 15 amino acid peptides. It counts as binding. The source says: Rabbit polyclonal antibodies were raised to recombinant C35 employing standard immunization methods well known in the art. Overlapping peptides 15 amino acids in length were synthesized corresponding to the 115 amino acid long C35 protein sequence beginning at each amino acid residue from 1 to 101. Peptides are named based on the C35 position of the amino terminus residue in each 15 amino acid peptide. In each peptide that overlapped the cysteine residues at positions 30, 33 and 112 of the natural C35 sequence, alanine was substituted for cysteine to avoid formation of disulfide crosslinked peptides.
Wells of 96 well Maxisorp microtiter plates were coated with either 2 μg C35 protein, or 14 μg or 40 μg of the indicated 15 amino acid peptide derived from the C35 protein sequence and binding of antibodies in the rabbit C35 immune serum was determined as described in detail below. Data in Table 11, below, is shown for the positive and negative controls and for those C35 derived peptides for which positive binding was detected. Variations in the level of peptide binding can be due to either differences in the concentration of specific antibody species, differences in antibody affinity or a combination thereof.
C35 peptide 15-mers in 100% DMSO, 10 mg/ml, were aliquotted into 1.5 ml tubes, 40 μg/tube, under sterile conditions, then speed vacuumed to remove DMSO. The peptides were resuspended in PBS, pH7.2, 1 ml/tube, mixed well and spun down. Each peptide concentration (“peptide solution”) was 40 μg/ml. Peptide solution should be stored at −20° C. until use. Once thawed, it should be kept at 4° C. for no more than 2 weeks.
For 14 μg/ml peptide coated plates, 65 μl PBS, pH7.2 per well was added, followed by 35 μl peptide solution per well (for a total volume of 100 μl/well), and mixed well. For 40 μg/ml peptide coated plates, 100 μl of peptide solution was placed directly on the plate, 100 μl/well. Control C35 protein was diluted into PBS, pH7.2 to 2 μg/ml and added to the plates, 100 μl/well. Coated plates were incubated at room temperature for 2 hours, then 4° C. overnight.
Each plate was washed 3 times on a plate washer. […] The secondary antibody, HRP (horseradish peroxidase conjugated goat anti-rabbit Fc polyclonal antibody from Zymed, was diluted at a 1:20,000 dilution into assay diluent and added to the plates, 100 μl/well. The plates were incubated at room temperature for 2 hours. Plates were washed 7 times on a plate washer. Substrate was added as per the kit manufacturers instructions and incubated at room temperature in the dark for 15 minutes. The reaction was stopped by adding 2N H2SO4, 100 μl/well. Absorbance at 450-570 nm was read immediately.

Data set [3] addresses T1, recombinant human C35 (rhC35) (Homo sapiens, UniProt Q9BRT3).
T1 construct: made in house; host or cells: E. coli
T1 sequence (Q9BRT3 1-115): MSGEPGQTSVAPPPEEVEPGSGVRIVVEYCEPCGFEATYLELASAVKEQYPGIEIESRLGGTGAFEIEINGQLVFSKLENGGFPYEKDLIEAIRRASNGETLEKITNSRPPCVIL
The data set is described as follows: Epitope localization by Western blot of Lys-C digested rhC35. Type of data set: binding. Conditions: native C35 sequence numbering; 1 μg/ml antibody. The source says:
(§1) To localize the epitope specificity of 1B3 and 1F2 antibodies, recombinant human C35 (rhC35) synthesized with a 6× His tag in E. coli was digested with Lys-C endoproteinase. This enzyme cuts after lysine (K) residues in the protein sequence. […] The full sequence of rhC35, including the amino terminal 6× His tag addition is shown. Amino acid positions are numbered relative to the amino terminal methionine (M) of the native human sequence. Note that digestion at the first and third lysine followed by negatively charged residues is inefficient and some longer combination fragments may be generated. Lys-C endoproteinase was added to purified rhC35 at a […] weight ratio and incubated for 18 hours at 37° C. in 25 mM Tris, pH 8.0. The digest was ethanol precipitated and resolubilized in reducing Tricine sample buffer. After heating 5 minutes at 100° C., samples were separated by electrophoresis on a 16% Tricine gel (Invitrogen). Peptides were transferred to PVDF membranes and the blots depicted in FIG. 10 were either stained with Coomassie blue (lanes 1-3 of both left and right panels) to detect all peptides or processed with one of the following: 1 μg/ml of the murine 1F2 anti-C35 antibody followed by alkaline phosphatase conjugated goat anti-mouse antibody (lane 4 of left panel); 1 μg/ml of the 1B3 anti-C35 immunoglobulin variable regions linked to human constant regions (MAb11) followed by alkaline phosphatase conjugated goat anti-human antibody (lane 5 of left panel); or anti-6× His tag mouse antibody (Amersham) followed by alkaline phosphatase conjugated goat anti-mouse antibody (lane 4 and 5 of right panel). BCIP/NBT substrate was added and developed to detect the secondary reagents. Molecular weight markers are indicated in the flanking lanes of both panels.
(§2) In FIG. 10, the indicated band A migrates at the position of undigested rhC35. Note that band B stains with 1F2 but not MAb11 (1B3) anti-C35 antibody while band C stains with neither 1F2 nor MAb11 (1B3) antibody. Since bands B and C both do stain with anti-6× His tag antibody to the 6× His tag at the amino terminus of rhC35, it may be concluded that both fragments lack C-terminal peptide fragments. […] This epitope is not required for staining with 1F2.

Data set [4] deals with T2, C35 protein (Homo sapiens, UniProt Q9BRT3).
T2 sequence (Q9BRT3 1-115): T1 sequence (Q9BRT3 1-115)
The data set is described as follows: ELISA and Western Blot of hybridoma antibodies. It counts as binding. To be noted: ELISA and Western Blot assays. How it is done:
(§3) Hybridoma cell lines IF2.4.1 and 1B3.6.1, specific for C35 polypeptides, were prepared using hybridoma technology. (Kohler et al., Nature 256:495 (1975); Kohler et al., Eur. J. Immunol. 6:511 (1976); Kohler et al., Eur. J. Immunol. 6:292 (1976); Hammerling et al., in: Monoclonal Antibodies and T-Cell Hybridomas, Elsevier, N.Y., pp. 571-681 (1981)). Briefly, hybridoma cell lines were generated using standard PEG fusion to the non-secreting myeloma cell line NS-1 (P3/NS1/1-AG4-1, ATCC #TIB-18) of splenocytes from BALB/c mice immunized with syngeneic BCA34 fibroblast tumor cells transduced to overexpress C35. Following PEG fusion to NS-1, the hybridomas were grown in methylcellulose semi-solid media. Approximately 2 weeks later, hybridoma colonies were isolated into 96 well plates and individual supernatants were tested for reactivity with C35 by ELISA, Western blot, and immunohistochemistry. Positive hybridomas colonies were subcloned and screened for reactivity twice to ensure clonality. Antibodies were isolated from hybridoma supernatants by protein G affinity purification using standard methods. […] In addition, we have developed intracellular staining flow cytometry assays for quantitative analysis using antibodies from hybridoma cell line 1F2 conjugated to Alexa-647 flourochrome. Each of these antibodies is distinct, yet both are specific for C35 protein. […]

Data set [5] concerns the target T2, C35 protein. The data set is described as follows: Competitive binding ELISA. To be noted: 1F2 versus 1B3. How it is done:
as §3
A general note: In an ELISA, binding on a coated surface is turned into a signal by an enzyme label.

In data set [6] the target is T3, recombinant human C35 (rhC35) (Homo sapiens, UniProt Q9BRT3).
T3 construct: made in house; host or cells: E. coli
T3 sequence (Q9BRT3 1-52): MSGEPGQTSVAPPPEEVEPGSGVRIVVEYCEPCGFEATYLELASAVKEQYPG
Kind of data set: Epitope localization by Western blot of Lys-C digested rhC35. Type of data set: binding. Conditions: Western blot, 1 μg/ml antibody.
Text: as §1, §2

Data set [7] has as its target T4, recombinant human C35 (rhC35) (Homo sapiens, UniProt Q9BRT3).
T4 construct: made in house; host or cells: E. coli
T4 sequence (Q9BRT3 1-104): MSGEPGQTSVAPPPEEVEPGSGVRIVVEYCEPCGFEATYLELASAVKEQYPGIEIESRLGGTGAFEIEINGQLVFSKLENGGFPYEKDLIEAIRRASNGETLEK
Described as above. It counts as binding. To be noted: Western blot, 1 μg/ml antibody.
Text: as §1, §2
This is another data set of the same source. Background: Immunoblotting shows a protein as a band on a membrane.

Setting [8] is: non-toxic dose at indicated schedule.
[9] abbreviates: literature values (footnotes 3-5).
[10] abbreviates: 14 μg/ml peptide coated plates, 100 ng/ml primary antibody (C35 protein control coated at 2 μg/ml).
[11] abbreviates: 40 μg/ml peptide coated plates, 1 μg/ml primary antibody (C35 protein control coated at 2 μg/ml).

Where two headings read alike, the source gives them in different places.

As to `N.N.[Cl][Pt][Cl]` [Cisplatin alone, cisplatin], the “inhibition of Colau.C35 tumor growth” value in the data set on Colau.C35 tumor cells (cisplatin 2 mg/kg days 15 and 18, 5FU/LV 180/120 mg/kg day 18, 300 μCi ^131I-1B3 day 21) is reported as “some inhibition”. In the data set with Colau.C35 tumor cells (same regimens), the “LCK = Log Cell Kill = TDD/3.32” value is listed as 0.20. The “T−C = difference in time for treated and control tumors to reach a given volume” value in the data set on Colau.C35 tumor cells (tumor volume 1200 mm^3, cisplatin 2 mg/kg days 15 and 18, 5FU/LV 180/120 mg/kg day 18, 300 μCi ^131I-1B3 day 21) is given as 5 days. Further, in the data set with Colau.C35 tumor cells (tumor volume 1200 mm^3, same regimens), the “TDD = Tumor doubling delay = T−C/tumor volume doubling time of untreated” value amounted to 0.66.
As to `O=P1(N(CCCl)CCCl)NCCCO1` (centres unmarked) [Cyclophosphamide], in data set [1] (setting [8]), the “Maximum Tolerated Dose” value was “No toxicity^2”.
Consider `Nc1ccn([C@@H]2O[C@H](CO)[C@@H](O)C2(F)F)c(=O)n1` [Gemcitabine], for which the “Maximum Tolerated Dose” value in data set [1] (setting [8]) is recorded as “No toxicity^5”.
Regarding `CCc1c2c(nc3ccc(OC(=O)N4CCC(N5CCCCC5)CC4)cc13)-c1cc3c(c(=O)n1C2)COC(=O)[C@]3(O)CC` [Irinotecan], the “Maximum Tolerated Dose” value in data set [1] (setting [9]) is 15 mg/kg.
Regarding `CCC1=C[C@@H]2CN(C1)Cc1c([nH]c3ccccc13)[C@@](C(=O)OC)(c1cc3c(cc1OC)N(C)[C@H]1[C@@](O)(C(=O)OC)[C@H](OC(C)=O)[C@]4(CC)C=CCN5CC[C@]31[C@@H]54)C2` [Vinorelbine], the “Maximum Tolerated Dose” value in data set [1] (setting [9]) is given as 20 mg/kg.
Consider FPYEKDLLEAIRRAS [Peptide P83], for which the “Absorbance @ 450-570 nm” value is on record as 0.025 in data set [2] (setting [10]) and 0.19 in data set [2] (setting [11]).

B1: C35 protein: control C35 protein coated at 2 μg/ml, positive control of the peptide ELISA (protein, UniProt Q9BRT3 2-112, looked up)
Migration and invasion …: SGEPGQTSVAPPPEEVEPGSGVRIVVEYCEPCGFEATYLELASAVKEQYPGIEIESRLGGTGAFEIEINGQLVFSKLENGGFPYEKDLIEAIRRASNGETLEKITNSRPPC
B1: the “Absorbance @ 450-570 nm” value worked out at 3.765 in data set [2] (setting [10]) and 3.5225 in data set [2] (setting [11]).

B2: 1B3: mouse monoclonal anti-C35 antibody from hybridoma 1B3, gamma1 isotype, kappa light chain; VH SEQ ID NO:8, VK SEQ ID NO:10 (antibody, listed as Mus sp., V domains shown)
VH: EVQLQESGPSLVKPSQTLSLTCSVTGDSITSGYWNWIRKFPGNKLEYVGYISYSGGTYYNPSLKSRISITRDTSKNHYYLQLNSVTTEDTATYYCARGAYYGGAFFPYFDVWGAGTTVTVSS
VL: DVQITQSPSFLAASPGETITINCRASKYISKHLVWYQEKPGETKKLLIYSGSTLQSGLPSRFSGSGSGTDFTLTISSLEPEDFAMYYCQQHNEYPLTFGAGTKLELK
As to B2, the epitope specificity result in data set [3] is reported as “residues 105-115”. In the data set with C35 protein [4], the “binding to recombinant C35 protein” value is on record as “specifically bind recombinant C35 protein”. The “epitope comparison by competition” value with C35 protein [5] is given as “bind different epitopes of the C35 protein”.

B3: MAb11 (1B3): 1B3 anti-C35 immunoglobulin variable regions linked to human constant regions (antibody, V domains shown)
VH: B2 VH
VL: B2 VL
With B3, the “staining of approximately 8 kDa band C (in addition lacks residues 53-104)” value in data set [6] was “neither”. Further, the “staining of approximately 15 kDa band B (lacks C35 residues 105-115)” value in data set [7] was “not”.
